Like-named read-outs stand apart in the source and are kept apart here. A value given as a limit tells only on which side of the number the result lay.

These results are taken from patent US20150141381A1, “TETRACYCLINE COMPOUNDS HAVING TARGET THERAPEUTIC ACTIVITIES” (Paratek Pharmaceuticals, Inc., priority 2001, published 2015).

Test [1] relates to S. aureus RN450. As to the kind of experiment: In Vitro Anti-Bacterial Activity Assay (MIC), gram positive. The following applies: for MIC: Staphylococcus aureus, RN450, 18 h. It is filed as cell-based.
Test [2] relates to E. coli mL308 225. As to the kind of experiment: In Vitro Anti-Bacterial Activity Assay (MIC), gram negative. In kind it is cell-based. Particulars: for MIC: Escherichia coli, ML308225, 18 h.
[3] abbreviates: MIC class, Table 3 (Continued), read-out: Gram+ activity.
[4] abbreviates: MIC class, Table 3 (Continued), read-out: Gram− activity.
Where [5] appears, read: MIC class, Table 3, read-out: Antibiotic Activity Gram +.
The mark [6] stands for this setting: MIC class, Table 3, read-out: Antibiotic Activity Gram −.
Setting [7] is: gram positive bacteria, read-out: Antibiotic Activity Gram + (MIC).
Setting [8] is: gram negative bacteria, read-out: Antibiotic Activity Gram − (MIC).

For the compound `COc1ccc(C#Cc2cc(N(C)C)c3c(c2O)C(=O)C2=C(O)[C@]4(O)C(=O)C(C(N)=O)=C(O)[C@@H](N(C)C)[C@@H]4C[C@@H]2C3)cc1`, the MIC in test [1] (setting [3]) and in test [2] (setting [4]) was below 4 µg/mL throughout.
As for `COc1cccc(CCc2ccc(O)c3c2C[C@H]2C[C@H]4[C@H](N(C)C)C(O)=C(C(N)=O)C(=O)[C@@]4(O)C(O)=C2C3=O)c1` [BK], the MIC is below 4 µg/mL in test [1] (setting [5]) and above 4 µg/mL in test [2] (setting [6]).
Regarding `CN(C)c1cc(CNCC2CCCCC2)c(O)c2c1C[C@H]1C[C@H]3[C@H](N(C)C)C(O)=C(C(N)=O)C(=O)[C@@]3(O)C(O)=C1C2=O` [MK], the MIC in test [1] (setting [5]) and in test [2] (setting [6]) was below 4 µg/mL each time.
On to `CN(C)c1cc(CN2CCC(F)CC2)c(O)c2c1C[C@H]1C[C@H]3[C@H](N(C)C)C(O)=C(C(N)=O)C(=O)[C@@]3(O)C(O)=C1C2=O`, for which the MIC in test [1] (setting [7]) and in test [2] (setting [8]) was below 4 µg/mL throughout.
Take `CN(C)[C@@H]1C(O)=C(C(N)=O)C(=O)[C@@]2(O)C(O)=C3C(=O)c4c(O)ccc(C#N)c4C[C@H]3C[C@@H]12`: the MIC in test [1] (setting [7]) and in test [2] (setting [8]) was below 4 µg/mL in each case.
For the compound `CCN(CC)Cc1ccc(OC)c(-c2ccc(O)c3c2C[C@H]2C[C@H]4[C@@H](N(C)C)C(O)=C(C(N)=O)C(=O)[C@@]4(O)C(O)=C2C3=O)c1` [J], the MIC in test [1] (setting [5]) and in test [2] (setting [6]) was below 4 µg/mL throughout.
With `COCc1cncc(-c2ccc(O)c3c2C[C@H]2C[C@H]4[C@H](N(C)C)C(O)=C(C(N)=O)C(=O)[C@@]4(O)C(O)=C2C3=O)c1`, the MIC in test [1] (setting [7]) and in test [2] (setting [8]) was below 4 µg/mL throughout.
As to `COc1ccc(NC(=O)Nc2cc(N(C)C)c3c(c2O)C(=O)C2=C(O)[C@]4(O)C(=O)C(C(N)=O)=C(O)[C@@H](N(C)C)[C@@H]4C[C@@H]2C3)cc1` [KB], the MIC in test [1] (setting [5]) is below 4 µg/mL; in test [2] (setting [6]), above 4 µg/mL.
With `CN(C)c1cc(CN2CCCC2)c(O)c2c1C[C@H]1C[C@H]3[C@H](N(C)C)C(O)=C(C(N)=O)C(=O)[C@@]3(O)C(O)=C1C2=O`, the MIC in test [1] (setting [7]) was below 4 µg/mL; in test [2] (setting [8]), above 4 µg/mL.
Regarding `CC1c2cccc(O)c2C(=O)C2=C(O)[C@]3(O)C(=O)C(C(N)=O)=C(O)[C@@H](N(C)C)[C@@H]3[C@@H](O)[C@@H]21` (some centres unmarked), the MIC in test [1] (setting [3]) is below 4 µg/mL; in test [2] (setting [4]), above 4 µg/mL.
Take `CCc1cc(N(C)C)c2c(c1O)C(=O)C1=C(O)[C@]3(O)C(=O)C(C(N)=O)=C(O)C(N(C)C)[C@@H]3C[C@@H]1C2` (some centres unmarked) [IA]: the MIC in test [1] (setting [5]) is below 4 µg/mL; in test [2] (setting [6]) it was above 4 µg/mL.
On the same counts, the results for `CN(C)C1C(O)=C(C(N)=O)C(=O)[C@@]2(O)C(O)=C3C(=O)c4c(O)ccc(CNC5CCCC5)c4C[C@H]3C[C@@H]12` (some centres unmarked) [NE] are below 4 µg/mL and below 4 µg/mL.
Regarding `CCN(CC)Cc1ccc(OC)c(-c2ccc(O)c3c2C[C@H]2C[C@H]4C(N(C)C)C(O)=C(C(N)=O)C(=O)[C@@]4(O)C(O)=C2C3=O)c1` (some centres unmarked) [EC], the MIC in test [1] (setting [5]) and in test [2] (setting [6]) was below 4 µg/mL each time.
Turning to `CN(C)c1cc(CN2C3CCC2CC3)c(O)c2c1C[C@H]1C[C@H]3[C@H](N(C)C)C(O)=C(C(N)=O)C(=O)[C@@]3(O)C(O)=C1C2=O`, the MIC in test [1] (setting [7]) was below 4 µg/mL; in test [2] (setting [8]) it was above 4 µg/mL.
For the compound `CCCCOc1ccc(-c2ccc(N(C)C)cc2)c2c1C(=O)C1=C(O)[C@]3(O)C(=O)C(C(N)=O)=C(O)[C@@H](N(C)C)[C@@H]3C[C@@H]1C2`, the MIC in test [1] (setting [7]) is below 4 µg/mL; in test [2] (setting [8]) it was above 4 µg/mL.
Turning to `CN(C)C1C(O)=C(C(N)=O)C(=O)[C@@]2(O)C(O)=C3C(=O)c4c(O)ccc(-c5ccc(CN6CCCC6)c6ccccc56)c4C[C@H]3C[C@@H]12` (some centres unmarked) [GH], the MIC in test [1] (setting [5]) and in test [2] (setting [6]) was below 4 µg/mL throughout.
`CC1c2ccc(-c3ccccc3)c(O)c2C(=O)C2=C(O)[C@]3(O)C(=O)C(C(N)=O)=C(O)[C@@H](N(C)C)[C@@H]3[C@@H](O)[C@@H]21` (some centres unmarked): the MIC in test [1] (setting [3]) and in test [2] (setting [4]) was below 4 µg/mL each time.
With `CN(C)[C@@H]1C(O)=C(C(N)=O)C(=O)[C@@]2(O)C(O)=C3C(=O)c4c(O)ccc(CCC(=O)N5CCOCC5)c4C[C@H]3C[C@@H]12`, the MIC in test [1] (setting [7]) was below 4 µg/mL; in test [2] (setting [8]), above 4 µg/mL.
Turning to `CN(C)[C@@H]1C(O)=C(C(N)=O)C(=O)[C@@]2(O)C(O)=C3C(=O)c4c(ccc(CNCCC(F)(F)F)c4O)C[C@H]3C[C@@H]12`, the MIC in test [1] (setting [7]) and in test [2] (setting [8]) was below 4 µg/mL in each case.
`CN(C)[C@@H]1C(O)=C(C(N)=O)C(=O)[C@@]2(O)C(O)=C3C(=O)c4c(O)cccc4[C@@](C)(O)[C@H]3C[C@@H]12` [D]: the MIC in test [1] (setting [5]) and in test [2] (setting [6]) was below 4 µg/mL throughout.
With `COc1ccc(-c2ccc(O)c3c2C[C@H]2C[C@H]4[C@H](N(C)C)C(O)=C(C(N)=O)C(=O)[C@@]4(O)C(O)=C2C3=O)cc1` [drawing 3312], the “Gram+ activity” value in test [1] (MIC class, Table 3 (Continued)) is “** (compounds with MIC less than or equal to 4 μg/ml are indicated with **)”. In addition, the “Gram− activity” value in test [2] (MIC class, Table 3 (Continued)) was “** (compounds with MIC less than or equal to 4 μg/ml are indicated with **)”.
For `Cc1ccc(-c2ccc(O)c3c2C[C@H]2C[C@H]4[C@H](N(C)C)C(O)=C(C(N)=O)C(=O)[C@@]4(O)C(O)=C2C3=O)cn1`, the MIC in test [1] (setting [7]) and in test [2] (setting [8]) was below 4 µg/mL each time.
For `COC1C(C(N)=O)=C(O)[C@@H](N(C)C)[C@@H]2[C@@H](O)[C@H]3C(=C(O)[C@]12O)C(=O)c1c(O)cccc1[C@@H]3C` (some centres unmarked), the MIC in test [1] (setting [7]) and in test [2] (setting [8]) was above 4 µg/mL in each case.
Turning to `COC(=O)C1CCN(CC(=O)Nc2ccc(-c3ccc(O)c4c3C[C@H]3C[C@H]5[C@H](N(C)C)C(O)=C(C(N)=O)C(=O)[C@@]5(O)C(O)=C3C4=O)cc2)CC1`, the MIC in test [1] (setting [7]) is below 4 µg/mL; in test [2] (setting [8]) it was above 4 µg/mL.
With `CN(C)[C@@H]1C(O)=C(C(N)=O)C(=O)[C@@]2(O)C(O)=C3C(=O)c4c(O)ccc(C#Cc5ccc(N)cc5)c4C[C@H]3C[C@@H]12` [BE], the MIC was below 4 µg/mL in test [1] (setting [5]) and above 4 µg/mL in test [2] (setting [6]).
As for `CN(C)[C@@H]1C(O)=C(C(N)=O)C(=O)[C@@]2(O)C(O)=C3C(=O)c4c(O)ccc(S(=O)(=O)O)c4C[C@H]3C[C@@H]12`, the MIC in test [1] (setting [7]) and in test [2] (setting [8]) was above 4 µg/mL throughout.
In the case of `CN(C)[C@@H]1C(O)=C(C(N)=O)C(=O)[C@@]2(O)C(O)=C3C(=O)c4c(O)ccc(-c5ccc(CNC6CCCCC6)o5)c4C[C@H]3C[C@@H]12` [LK], the MIC in test [1] (setting [5]) and in test [2] (setting [6]) was below 4 µg/mL in each case.
For the compound `CONCc1cc(CNCC(C)(C)C)c(O)c2c1C[C@H]1C[C@H]3[C@H](N(C)C)C(O)=C(C(N)=O)C(=O)[C@@]3(O)C(O)=C1C2=O`, the MIC in test [1] (setting [7]) was below 4 µg/mL; in test [2] (setting [8]), above 4 µg/mL.
As for `CN(C)CC(=O)Nc1ccc(C#Cc2ccc(O)c3c2C[C@H]2C[C@H]4[C@H](N(C)C)C(O)=C(C(N)=O)C(=O)[C@@]4(O)C(O)=C2C3=O)cc1` [BM], the MIC in test [1] (setting [5]) and in test [2] (setting [6]) was below 4 µg/mL throughout.
Consider `Cc1ccnc(-c2ccc(O)c3c2C[C@H]2C[C@H]4[C@H](N(C)C)C(O)=C(C(N)=O)C(=O)[C@@]4(O)C(O)=C2C3=O)c1`, for which the MIC in test [1] (setting [7]) and in test [2] (setting [8]) was below 4 µg/mL in each case.
Turning to `CN(C)[C@@H]1C(O)=C(C(N)=O)C(=O)[C@@]2(O)C(O)=C3C(=O)c4c(O)ccc(-c5ccc(/C=N/O)o5)c4C[C@H]3C[C@@H]12` [NA], the MIC in test [1] (setting [5]) and in test [2] (setting [6]) was below 4 µg/mL throughout.
Turning to `Cc1cc(C(C)(C)C)c(O)c2c1C[C@H]1C[C@H]3[C@H](N(C)C)C(O)=C(C(N)=O)C(=O)[C@@]3(O)C(O)=C1C2=O`, the MIC in test [1] (setting [7]) is below 4 µg/mL; in test [2] (setting [8]), above 4 µg/mL.
As for `COC(CN(Cc1ccc(O)c2c1C[C@H]1C[C@H]3[C@@H](N(C)C)C(O)=C(C(N)=O)C(=O)[C@@]3(O)C(O)=C1C2=O)CC(OC)OC)OC` [KD], the MIC in test [1] (setting [5]) was below 4 µg/mL; in test [2] (setting [6]) it was above 4 µg/mL.
As for `CN(C)c1cc(CNCc2ccc(C#N)cc2)c(O)c2c1C[C@H]1C[C@H]3[C@H](N(C)C)C(O)=C(C(N)=O)C(=O)[C@@]3(O)C(O)=C1C2=O`, the values for the MIC in test [1] (setting [7]) and in test [2] (setting [8]) were below 4 µg/mL and above 4 µg/mL, respectively.
Consider `CN(C)[C@@H]1C(O)=C(C(N)=O)C(=O)[C@@]2(O)C(O)=C3C(=O)c4c(O)ccc(-c5cnc(N)nc5)c4C[C@H]3C[C@@H]12` [PF], for which the MIC in test [1] (setting [5]) and in test [2] (setting [6]) was below 4 µg/mL throughout.
For the compound `CN(C)c1cc(CNC(=O)Nc2ccc(OC(F)(F)F)cc2)c(O)c2c1C[C@H]1C[C@H]3[C@H](N(C)C)C(O)=C(C(N)=O)C(=O)[C@@]3(O)C(O)=C1C2=O` [FO], the MIC in test [1] (setting [5]) is below 4 µg/mL; in test [2] (setting [6]) it was above 4 µg/mL.
On to `CN(C)[C@@H]1C(O)=C(C(N)=O)C(=O)[C@@]2(O)C(O)=C3C(=O)c4c(O)c(CS(C)(=O)=O)cc(-c5ccccn5)c4C[C@H]3C[C@@H]12`, for which the MIC in test [1] (setting [7]) is below 4 µg/mL; in test [2] (setting [8]), above 4 µg/mL.
As to `C[C@H]1c2ccc(NC(=O)Oc3ccc(F)cc3)c(O)c2C(=O)C2=C(O)[C@]3(O)C(=O)C(C(N)=O)=C(O)[C@@H](N(C)C)[C@@H]3[C@@H](O)[C@@H]21` [V], the MIC in test [1] (read-out: Antibiotic Activity Gram +) and in test [2] (read-out: Antibiotic Activity Gram −) was above 4 µg/mL in each case.
Regarding `CN(C)[C@@H]1C(O)=C(C(N)=O)C(=O)[C@@]2(O)C(O)=C3C(=O)c4c(O)ccc(-c5ccc(CNCC(F)(F)F)cc5)c4C[C@H]3C[C@@H]12` [drawing 3505], the MIC in test [1] (setting [7]) and in test [2] (setting [8]) was below 4 µg/mL in each case.
In the case of `CN(C)[C@H]1C(O)=C(C(N)=O)C(=O)[C@@]2(O)C(O)=C3C(=O)c4c(O)ccc(-c5ccc(NC(=O)C6CC6)cc5)c4C[C@H]3C[C@@H]12` [GQ], the MIC in test [1] (setting [5]) was below 4 µg/mL; in test [2] (setting [6]), above 4 µg/mL.
